Source: patent publication US20240190843A1, “CRYSTALLINE FORM OF A SHP2 INHIBITOR” (Array BioPharma Inc., priority 2021, published 2024)

Assay: Comparative stability of stored solid samples (HPLC purity, PXRD, appearance after 7 days)
Assay type: physicochemical
Protocol: The chemical stability data using HPLC was evaluated on samples stored at several conditions as listed in Table 6 between free base hemihydrate Form 1 and amorphous form.
HPLC Method • Column: LC\027 Agilent Poroshell 120 EC-C18 150×4.6 mm, 2.7 μm • Column Temperature: 40° C. • Autosampler Temperature: Ambient • UV wavelength: 220 nm • Injection Volume: 4.00 μL • Flow Rate: 1.5 mL/min • Mobile Phase A: 0.02% TFA in H2O • Mobile Phase B: 0.02% TFA in MeCN • Time (minutes) Solvent B [%] • 0 20 • 3 20 • 15 70 • 15.1 95 • 16 95 • 16.1 20 • 20.0 20

HPLC purity (%) after 7 days (stored at 25° C./60% RH) | Observations after 7 days (stored at 25° C./60% RH) | PXRD after 7 days (stored at 25° C./60% RH) | HPLC purity (%) after 7 days (stored at 40° C./75% RH) | Observations after 7 days (stored at 40° C./75% RH) | PXRD after 7 days (stored at 40° C./75% RH) | HPLC purity (%) after 7 days (stored at 80° C.) | Observations after 7 days (stored at 80° C.) | PXRD after 7 days (stored at 80° C.) | HPLC purity (%) after 7 days (stored at Ambient) | Observations after 7 days (stored at Ambient) | PXRD after 7 days (stored at Ambient) | Structure (SMILES)
82.8% | Vibrant | Amorphous | 86.7% | Vibrant | Amorphous | 54.7% | Brown | Amorphous | 71.7% | Vibrant | Amorphous | Nc1nccc(Sc2cnc(N3CCC4(CC3)Cc3ccccc3[C@H]4N)nn2)c1Cl [Amorphous, (S)-1′-(6-((2-amino-3-chloropyridin-4-yl)thio)-1,2,4-triazin-3-yl)-1,3-dihydrospiro[indene-2,4′-piperidin]-1-amine]
97.5% | Yellow | Form 1 | 97.6% | Yellow | Form 1 | 97.1% | Yellow | Form 1 | 97.1% | Yellow | Form 1 | Nc1nccc(Sc2cnc(N3CCC4(CC3)Cc3ccccc3[C@H]4N)nn2)c1Cl [Form 1, (S)-1′-(6-((2-amino-3-chloropyridin-4-yl)thio)-1,2,4-triazin-3-yl)-1,3-dihydrospiro[indene-2,4′-piperidin]-1-amine]
